Assay results published in patent US6602514B1, “Use of ectoine or ectoine derivatives in cosmetic formulations” (Merck Patent GmbH, priority 1998, dated 2003).

Legend:
[1] = test system: skin barrier (forearm skin of the subjects); test: In vivo determination of the transepidermal water loss (TEWL) following damage to the skin barrier by SDS treatment; parameters: species or system human; details: N=5; for TEWL after SDS stress: then 2% SDS, occlusion 24 h; for TEWL after ectoin treatment for 1 week: 2 mg/cm^2 twice daily, forearm; for TEWL before treatment: baseline, 22° C., 60% humidity
Experimental: Using the skincare creams (0/W) comprising ectoin described in. Example 4, an in vivo determination of the transepidermal water loss (TEWL) following damage to the skin barrier by SDS treatment is carried out. Firstly, the skin of the subjects (N=5) on the forearm is treated for one week twice daily with the O/W emulsion (2 mg/cm^2) comprising 2% and 5% of ectoin and an emulsion without ectoin (placebo). In order to increase the TEWL artificially as a result of damage to the horny barrier, the skin is then treated with 80 μl of sodium dodecyl sulfate (SDS; 2% in water) in an aluminum chamber with occlusion for 24 h. The TEWL determination is carried out in a climatically controlled room at 22° C. and an atmospheric humidity of 60% using a TM210 TEWA meter. […] The values for FIG. 1 are given in Tab. 1.

human erythrocytes = test: RBC test: membrane-stabilizing action on ectoin pretreated erythrocytes against SDS; format: cell-based
Experimental: To determine the cell membrane- and protein-damaging action of surfactants, the RBC Test can, for example, be used. For this, the erythrocytes are incubated e.g. with sodium dodecyl sulfate (SDS), for example for a period of 10 minutes. SDS destabilizes the membrane of untreated cells such that the cells are partially lysed and their contents such as the hemoglobin are released. The hemoglobin released during cell-wall damage serves as an indicator for the spectrophotometric determination of the membrane damage by SDS. By reference to the hemoglobin released, it is possible to determine the number of destroyed erythrocytes.
Using an aqueous ectoin solution buffered in PBS buffer (22.2 mmol/l of disodium hydrogenphosphate, 5.6 mmol/l of potassium dihydrogenphosphate, 123.3 mmol/l of sodium chloride and 10 mmol/l of glucose), a determination of the membrane-stabilizing action of ectoin pretreated human erythrocytes against SDS is carried out. The RBC test is used here. The percentage membrane stabilization of cells pretreated with ectoin is determined.
Human erythrocytes (2×10^8 cells/ml) are treated for 1 hour with 0%, 0.1%, 0.5%, 1% and 5% of ectoin. The cells are then stressed for 10 min with 0 to 0.04% SDS solution. Then, spectrophotometry is used to determine how many cells have been lysed by reference to the free hemoglobin content. […] The experiment is carried out N=5 times.
In addition, human erythrocytes (2×10^8 cells/ml) are treated with 1% of ectoin for 0 (control), 6, 18 and 24 hours. The cells are then stressed for 10 min with 0 to 0.04% of SDS solution. Then, spectrophotometry is used to determine how many cells have been lysed by reference to the free hemoglobin content. […] The experiment is carried out N=5 times.

## CC1=N[C@H](C(=O)O)CCN1 [ectoin, (S)-1,4,5,6-tetrahydro-2-methyl-4-pyrimidecarboxylic acid]
[1]; O/W emulsion with 2% of ectoin for 1 week
  TEWL after SDS stress: 14.2 g/m^2/h
[1]; O/W emulsion with 2% of ectoin
  TEWL after ectoin treatment for 1 week: 5.6 g/m^2/h
[1]; O/W emulsion with 5% of ectoin for 1 week
  TEWL after SDS stress: 10.8 g/m^2/h
[1]; O/W emulsion with 5% of ectoin
  TEWL after ectoin treatment for 1 week: 5.6 g/m^2/h
[1]; test area for the O/W emulsion with 2% of ectoin
  TEWL before treatment: 5.6 g/m^2/h
[1]; test area for the O/W emulsion with 5% of ectoin
  TEWL before treatment: 5.1 g/m^2/h
Human erythrocytes; 0.1%, 0.5%, 1%, 5% of ectoin, 1 hour, FIG. 3
  dependence of the protective effect on ectoin concentration: The higher the ectoin concentration, the greater the protective effect
Human erythrocytes; 1% of ectoin for 6, 18, 24 hours, FIG. 4
  dependence of the protective effect on duration of pretreatment: The longer the cells are pretreated with ectoin, the greater the protective effect
Human erythrocytes; 1 hour pretreatment with 0.1-5% of ectoin, 10 min 0 to 0.04% SDS, FIG. 3
  protection of erythrocytes against membrane damage by SDS: protects the cells against damage by SDS
